Source: patent US9675579B2, “Tetrahydrocannabivarin for use in the treatment of nausea and vomiting” (GW Pharma Limited, priority 2013, dated 2017)
Entries after “also recorded” stand apart in the source; their conditions may differ. Read-outs that look alike come from different tables or passages of the source.

Legend:
rodent = conditions: cited from earlier work; for suppression of toxin-induced conditioned gaping: rodent model of conditioned nausea
Sprague-Dawley rats [1] = test: Potentiation or attenuation of LiCl-induced conditioned gaping (Example 2); assay type: in vivo, rat; conditions: for LiCl-induced conditioned gaping reactions relative to group VEH: rats, drug-free test 72 h later
Method: Animals and Drugs and Materials were as described in Example 1 above.
Following recovery from intraoral cannulation surgery, the rats received the adaptation trial to the TR test as described in Example 1 above. On the day of conditioning (saccharin palatability test), the rats were injected with VEH (n=10), 2.5 mg/kg SR (n=10), 2.5 mg/kg THC (n=6), 10 mg/kg THC (n=7), 2.5 mg/kg THCV (n=10) or 10 mg/kg THCV (n=6), 2.5 mg/kg CBDV (n=10) or 200 mg/kg CBDV (n=13). Thirty min later, each rat was intraorally infused with 0.1% saccharin solution while their orofacial responses were video recorded from the mirror beneath the chamber. Immediately following the 2 min intraoral infusion of saccharin, the rats were injected with 20 ml/kg or 0.15 M LiCl.
Seventy-two hours later, the rats received a drug-free test trial, during which they received a 2 min intraoral infusion of 0.1% saccharin solution and the frequency of gaping was measured. The videotapes were later scored (at 1/2 speed) by an observer blind to the experimental conditions for the hedonic reaction of tongue protrusions (at conditioning and testing). As well, to determine other non-specific effects of the drug during conditioning, the conditioning tapes were scored for bouts of active locomotion (forward movement of paws on the floor of the cage).

Sprague-Dawley rats [2] = test: Conditioned gaping to saccharin paired with the compound (Example 1)
Method: Naïve male Sprague-Dawley rats, obtained from Charles River Laboratories (St Constant, Quebec) were single-housed in shoebox cages in the colony room at an ambient temperature of 21° C. with a 12/12 light/dark schedule (lights off at 8 AM) and maintained on ad-libitum food and water.
Drugs and Materials: All cannabinoid compounds were prepared in a vehicle (VEH) of ethanol/Cremophor (Sigma)/saline (SAL; 1:1:18) and administered intraperitonally (i.p.).
SR was prepared at 2.5, 10 and 20 mg/kg and administered at a volume of 2 ml/kg. CBDV was prepared at 2.5 and 10 mg/kg and administered at a volume of 2 ml/kg. A high dose of CBDV was prepared at 200 mg/kg and administered at a volume 10 ml/kg. THCV was prepared at 2.5, 10 and 20 mg/kg and administered at a volume of 2 ml/kg.
Procedures: Rats were implanted with intraoral cannulae under isofluorane anesthesia. […]
Seventy two hours after the conditioning trial, the rats were returned to the TR chamber and intraorally infused with 0.1% saccharin solution and their orofacial reactions were video recorded with the feed from the video camera fire-wired into a computer. The video tapes are later scored (at 1/2 speed) by a trained observer blind to the experimental conditions for the behaviour of gaping (large openings of the mouth and jaw, with lower incisors exposed).

CB1 receptor [3] = biological target: CB1 receptor (Homo sapiens, UniProt P21554); conditions: in vitro, Thomas et al., 2005; cited from earlier work
Sequence of CB1 receptor (Homo sapiens, UniProt P21554) (P21554 whole entry): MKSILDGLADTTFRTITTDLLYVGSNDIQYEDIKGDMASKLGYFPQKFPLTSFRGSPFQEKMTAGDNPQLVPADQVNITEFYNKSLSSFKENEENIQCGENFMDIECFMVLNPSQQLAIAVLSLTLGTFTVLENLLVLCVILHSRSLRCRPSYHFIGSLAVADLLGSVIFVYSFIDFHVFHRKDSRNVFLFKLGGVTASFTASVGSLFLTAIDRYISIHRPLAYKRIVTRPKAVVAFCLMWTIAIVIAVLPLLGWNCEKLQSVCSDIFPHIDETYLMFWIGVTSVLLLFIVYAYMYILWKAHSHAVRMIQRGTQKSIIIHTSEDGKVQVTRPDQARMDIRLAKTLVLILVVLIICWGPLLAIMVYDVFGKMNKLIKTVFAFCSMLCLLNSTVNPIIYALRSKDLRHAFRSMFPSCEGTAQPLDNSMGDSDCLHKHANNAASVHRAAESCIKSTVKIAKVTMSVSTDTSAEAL

CB2 receptor = CB2 receptor (Homo sapiens, UniProt P34972); conditions: in vitro, Thomas et al., 2005; cited from earlier work
Sequence of CB2 receptor (P34972 whole entry): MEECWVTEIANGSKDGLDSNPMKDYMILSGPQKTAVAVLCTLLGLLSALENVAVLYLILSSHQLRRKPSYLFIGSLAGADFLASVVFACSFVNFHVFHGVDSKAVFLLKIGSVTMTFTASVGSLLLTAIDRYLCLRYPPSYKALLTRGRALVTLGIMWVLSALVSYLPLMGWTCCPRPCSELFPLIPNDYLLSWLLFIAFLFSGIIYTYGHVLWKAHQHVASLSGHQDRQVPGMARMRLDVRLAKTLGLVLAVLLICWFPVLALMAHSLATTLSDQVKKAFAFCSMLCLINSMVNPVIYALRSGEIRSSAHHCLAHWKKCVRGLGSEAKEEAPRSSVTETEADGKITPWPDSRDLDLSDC

CB1 receptor [4] = biological target: CB1 receptor (Mus musculus, UniProt P47746); conditions: low doses (<3 mg/kg), Pertwee et al., 2007; cited from earlier work
Sequence of CB1 receptor (Mus musculus, UniProt P47746) (P47746 whole entry): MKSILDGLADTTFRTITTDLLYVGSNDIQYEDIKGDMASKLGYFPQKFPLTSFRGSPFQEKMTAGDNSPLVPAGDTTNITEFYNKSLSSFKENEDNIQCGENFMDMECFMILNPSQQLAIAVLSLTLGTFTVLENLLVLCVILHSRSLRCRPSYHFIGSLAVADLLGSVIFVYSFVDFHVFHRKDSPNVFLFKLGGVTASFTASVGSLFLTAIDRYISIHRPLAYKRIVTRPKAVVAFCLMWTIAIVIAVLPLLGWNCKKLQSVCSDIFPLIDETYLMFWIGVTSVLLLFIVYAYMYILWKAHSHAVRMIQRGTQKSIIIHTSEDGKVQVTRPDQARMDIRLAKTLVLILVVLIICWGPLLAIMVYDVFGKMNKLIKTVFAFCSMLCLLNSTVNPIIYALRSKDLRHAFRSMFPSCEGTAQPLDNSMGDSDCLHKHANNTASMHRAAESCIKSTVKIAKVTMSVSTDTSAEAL

[5] = 2.5 mg/kg i.p. 30 min before saccharin-LiCl pairing

C=C(C)[C@@H]1CCC(C)=C[C@H]1c1c(O)cc(CCCCC)cc1O [CBD, cannabidiol]
suppression of toxin-induced conditioned gaping (rodent; 5 mg/kg): suppress toxin-induced conditioned gaping

C=C(C)[C@@H]1CCC(C)=C[C@H]1c1c(O)cc(CCC)cc1O [CBDV]
LiCl-induced conditioned gaping reactions relative to group VEH (Sprague-Dawley rats [1]; [5]): marginally attenuated LiCl-induced gaping reactions
LiCl-induced conditioned gaping reactions relative to group VEH (Sprague-Dawley rats [1]; 200 mg/kg i.p. 30 min before saccharin-LiCl pairing, 200 mg/kg): significantly attenuated the LiCl-induced gaping reactions; also recorded: statistically significant anti-nausea effect

Cc1c(C(=O)NN2CCCCC2)nn(-c2ccc(Cl)cc2Cl)c1-c1ccc(Cl)cc1 [SR, rimonabant]
conditioned gaping, 20 mg/kg compared with 10 mg/kg (Sprague-Dawley rats [2]; rat, in vivo): marginally more gaping
LiCl-induced conditioned gaping reactions relative to group VEH (Sprague-Dawley rats [1]; [5]): potentiated LiCl-induced gaping reactions
potentiation of the nausea produced by LiCl (potentiated gaping) (rodent; 2.5 mg/kg, sub-threshold for nausea on its own, pre-treatment prior to saccharin-LiCl pairing, drug-free test 72 hours after conditioning): potentiated the nausea produced by LiCl

CCCCCc1cc(O)c2c(c1)OC(C)(C)[C@@H]1CCC(C)=C[C@@H]21 [THC, tetrahydrocannabinol]
LiCl-induced conditioned gaping reactions relative to group VEH (Sprague-Dawley rats [1]; [5]): significantly attenuated the LiCl-induced gaping reactions
LiCl-induced conditioned gaping reactions relative to group VEH (Sprague-Dawley rats [1]; 10 mg/kg i.p. 30 min before saccharin-LiCl pairing): significantly attenuated the LiCl-induced gaping reactions
suppression of toxin-induced conditioned gaping (rodent; 0.5 mg/kg): suppress toxin-induced conditioned gaping

CCCc1cc(O)c2c(c1)OC(C)(C)[C@@H]1CCC(C)=C[C@@H]21 [THCV, tetrahydrocannabivarin]
conditioned gaping reactions (nausea-like reactions) elicited by 0.1% saccharin previously paired with the compound (Sprague-Dawley rats [2]; rats, i.p., all doses tested (SR 10, 20; AM251 10; THCV 10, 20; CBDV 10, 200 mg/kg), drug-free test 72 h after conditioning, vs VEH and other groups): did not produce apparent inverse agonist properties; also recorded: neither CBDV (10 or 200 mg/kg) nor THCV (10 or 20 mg/kg) produced the nausea-like profile of conditioned gaping
human equivalent dose of the dose that blocked LiCl-induced nausea (Sprague-Dawley rats [1]; calculated from the rat dose, Km rat 6, Km human 37): greater than 0.4 mg/kg
dose that blocked LiCl-induced nausea (Sprague-Dawley rats [1]; in rats): greater than 2.5 mg/kg
LiCl-induced conditioned gaping reactions relative to group VEH (Sprague-Dawley rats [1]; [5]): marginally attenuated LiCl-induced gaping reactions
LiCl-induced conditioned gaping reactions relative to group VEH (Sprague-Dawley rats [1]; 10 mg/kg i.p. 30 min before saccharin-LiCl pairing, 10 mg/kg): no gaping reactions; also recorded: eliminated LiCl-induced nausea
action at the CB1 receptor (CB1 receptor [3]): acts as a CB1 and CB2 receptor antagonist
action at the CB2 receptor (CB2 receptor): acts as a CB1 and CB2 receptor antagonist
action at the CB1 receptor in vivo (CB1 receptor [4]): act as a CB1 receptor antagonist
